Experimental data as given in patent publication US20240360177A1, “PEPTIDES WITH ANTIMICROBIAL ACTIVITIES” (priority 2021, published 2024).
Converted amounts (≈) assume the structure as drawn. Where two headings read alike, the source gives them in different places. Starred links: 1 amine or outer side, 2 acyl side, 3 side chain; linkers in the order of their positions; H or OH if unused. Non-standard residues stand in square brackets, D forms with d. Residues, ends and D or L forms follow the SMILES beside them. NH(CH2)9CO = O=C(CCCCCCCCCN[*:1])[*:2]; Aoc = NCCCCCCCC(=O)O; βAla = NCCC(=O)O

How the values were obtained:
C. albicans = conditions: 24 h
C. glabrata = conditions: 24 h
C. parapsilosis = conditions: 24 h
C. krusei = conditions: 24 h
C. auris = conditions: 24 h
C. tropicalis = conditions: 24 h
C. dubliniensis = conditions: 24 h
C. neoformans = conditions: 72 h
C. gattii = conditions: 72 h
Coccidioides species = conditions: N = 3 strains; 48-72 hrs; >50% inhibition
in vitro = conditions: human
[1] = Acute toxicity in CD-1 mice; conditions: both sexes, mouse, in vivo
Procedure: Acute toxicity and subacute toxicity of ACPs were tested in CD-1 mice. In the acute toxicity study, groups of CD-1 male or female mice were administered single intravenous or intraperitoneal escalating doses (n=2-3 per dose) of the peptides dissolved in normal saline for injection or in phosphate buffered saline. The intravenous dose was administered via tail vein with a slow push over 15-20 seconds. Doses were escalated based on tolerability.

[2] = system: Staphylococcus aureus ATCC 29213; type: cell-based
[3] = system: Escherichia coli ATCC 25922; type: cell-based
[4] = system: Pseudomonas aeruginosa ATCC 27853; type: cell-based
[5] = EC50 cytotoxicity in HepG2, intracellular ATP assay
[6] = single IP dose, read-out: Tolerated single intraperitoneal dose
[7] = single IV dose via tail vein, read-out: Tolerated single intravenous dose

## CC[C@@H]([C@H](C)O)n1ncn(-c2ccc(N3CCN(c4ccc(OC[C@@H]5CO[C@@](Cn6cncn6)(c6ccc(F)cc6F)C5)cc4)CC3)cc2)c1=O [POS, posaconazole, reference compound]
Rhizopus arrhizus; N = 3 strains, 24 hrs
  MIC Range Rhizopus arrhizus: 0.12 to 0.25 µg/mL
Paecilomyces variotii; N = 1 strain, 48 hrs
  MIC Range Paecilomyces variotii: ≤0.03 µg/mL

## N=C(N)NCCC[C@@H](N)C(=O)N[C@@H](CCCNC(=N)N)C(=O)N[C@H](CCCNC(=N)N)C(=O)NCC(=O)N[C@H](CCCNC(=N)N)C(=O)N[C@@H](CCCNC(=N)N)C(=O)N[C@H](CCCNC(=N)N)C(=O)NCC(=O)N[C@H](CCCNC(=N)N)C(=O)N[C@@H](CCCNC(=N)N)C(=O)N[C@H](CCCNC(=N)N)C(=O)N[C@@H](CCCNC(=N)N)C(=O)NCC(=O)N[C@H](CCCNC(=N)N)C(=O)N[C@@H](CCCNC(=N)N)C(=O)N[C@H](CCCNC(=N)N)C(=O)N[C@@H](CCCNC(=N)N)C(=O)O [SEQ ID NO: 3, rRr-G-rRr-G-rRrR-G-rRrR] (H-[dR]R[dR]G[dR]R[dR]G[dR]R[dR]RG[dR]R[dR]R-OH)
C. albicans
  MIC C. albicans: 0.5 µg/mL (≈ 0.21 µM)
C. glabrata
  MIC C. glabrata: 0.25 µg/mL (≈ 0.105 µM)
C. parapsilosis
  MIC C. parapsilosis: 0.25 µg/mL (≈ 0.105 µM)
C. krusei
  MIC C. krusei: 1 µg/mL (≈ 0.421 µM)
C. auris
  MIC C. auris: 4 µg/mL (≈ 1.68 µM)
C. tropicalis
  MIC C. tropicalis: 0.25 µg/mL (≈ 0.105 µM)
C. dubliniensis
  MIC C. dubliniensis: 0.25 µg/mL (≈ 0.105 µM)
C. neoformans
  MIC C. neoformans: 0.5 µg/mL (≈ 0.21 µM)
C. gattii
  MIC C. gattii: 0.5 µg/mL (≈ 0.21 µM)
Coccidioides species
  MIC Range Coccidioides species: 0.25 to 0.5 µg/mL
Fusarium spp.; 48 h
  MIC Range Fusarium spp.: 0.12 to 0.5 µg/mL
Scedosporium spp.; 72 h
  MIC Range Scedosporium spp.: ≤0.12 µg/mL
Lomentospora prolificans
  MIC Range Lomentospora prolificans: ≤0.12 µg/mL
Rhizopus arrhizus; 24 h
  MIC Range Rhizopus arrhizus: 1 to 8 µg/mL
Paecilomyces variotii; 48 h
  MIC Range Paecilomyces variotii: 0.25 µg/mL (≈ 0.105 µM)
Candida spp.
  MIC50 against Candida spp.: 0.5 µg/mL (≈ 0.21 µM)
  MIC90 against Candida spp.: 4 µg/mL (≈ 1.68 µM)
In vitro; [5]
  EC50: > 300 µg/mL
In vitro; EC50 cytotoxicity in HepG2 cells (50% cell viability)
  EC50: > 300 µg/mL

## N=C(N)NCCC[C@@H](N)C(=O)N[C@@H](CCCNC(=N)N)C(=O)N[C@H](CCCNC(=N)N)C(=O)NCC(=O)N[C@H](CCCNC(=N)N)C(=O)N[C@@H](CCCNC(=N)N)C(=O)N[C@H](CCCNC(=N)N)C(=O)NCC(=O)N[C@H](CCCNC(=N)N)C(=O)N[C@@H](CCCNC(=N)N)C(=O)N[C@H](CCCNC(=N)N)C(=O)N[C@@H](CCCNC(=N)N)C(=O)NCC(=O)N[C@H](CCCNC(=N)N)C(=O)N[C@@H](CCCNC(=N)N)C(=O)N[C@H](CCCNC(=N)N)C(=O)N[C@@H](CCCNC(=N)N)C(N)=O [SEQ ID NO: 4, rRr-G-rRr-G-rRrR-G-rRrR-NH2] (H-[dR]R[dR]G[dR]R[dR]G[dR]R[dR]RG[dR]R[dR]R-NH2)
C. albicans
  MIC C. albicans: 0.5 µg/mL (≈ 0.211 µM)
C. glabrata
  MIC C. glabrata: 0.25 µg/mL (≈ 0.105 µM)
C. parapsilosis
  MIC C. parapsilosis: 0.25 µg/mL (≈ 0.105 µM)
C. krusei
  MIC C. krusei: 0.5 µg/mL (≈ 0.211 µM)
C. auris
  MIC C. auris: 8 µg/mL (≈ 3.37 µM)
C. tropicalis
  MIC C. tropicalis: 0.25 µg/mL (≈ 0.105 µM)
C. dubliniensis
  MIC C. dubliniensis: 0.25 µg/mL (≈ 0.105 µM)
C. neoformans
  MIC C. neoformans: 0.25 µg/mL (≈ 0.105 µM)
C. gattii
  MIC C. gattii: 0.5 µg/mL (≈ 0.211 µM)
Coccidioides species
  MIC Range Coccidioides species: 0.25 to 0.5 µg/mL
Fusarium spp.; 48 h
  MIC Range Fusarium spp.: 0.06 to 8 µg/mL
Scedosporium spp.; 72 h
  MIC Range Scedosporium spp.: ≤0.12 µg/mL
Lomentospora prolificans
  MIC Range Lomentospora prolificans: ≤0.12 µg/mL
Rhizopus arrhizus; 24 h
  MIC Range Rhizopus arrhizus: 0.5 to 8 µg/mL
Paecilomyces variotii; 48 h
  MIC Range Paecilomyces variotii: 0.25 µg/mL (≈ 0.105 µM)
In vitro; [5]
  EC50: > 300 µg/mL

## N=C(N)NCCC[C@@H](N)C(=O)N[C@@H](CCCNC(=N)N)C(=O)N[C@H](CCCNC(=N)N)C(=O)NCCC(=O)N[C@H](CCCNC(=N)N)C(=O)N[C@@H](CCCNC(=N)N)C(=O)N[C@H](CCCNC(=N)N)C(=O)NCCC(=O)N[C@H](CCCNC(=N)N)C(=O)N[C@@H](CCCNC(=N)N)C(=O)N[C@H](CCCNC(=N)N)C(=O)N[C@@H](CCCNC(=N)N)C(=O)NCCC(=O)N[C@H](CCCNC(=N)N)C(=O)N[C@@H](CCCNC(=N)N)C(=O)N[C@H](CCCNC(=N)N)C(=O)N[C@@H](CCCNC(=N)N)C(=O)NCCCCCCCC(=O)O [SEQ ID NO: 16, rRr-(Apr)-rRr-(Apr)-rRrR-(Apr)-rRrR-(Aoa)] (H-[dR]R[dR][βAla][dR]R[dR][βAla][dR]R[dR]R[βAla][dR]R[dR]R[Aoc]-OH)
[1]; [6]
  MTD: 10 to 15 mg/kg
[1]; [7]
  MTD: 5 to 7.5 mg/kg
C. albicans
  MIC C. albicans: 1 µg/mL (≈ 0.391 µM)
C. glabrata
  MIC C. glabrata: 0.5 µg/mL (≈ 0.195 µM)
C. parapsilosis
  MIC C. parapsilosis: 0.5 µg/mL (≈ 0.195 µM)
C. krusei
  MIC C. krusei: 0.5 µg/mL (≈ 0.195 µM)
C. auris
  MIC C. auris: 0.5 µg/mL (≈ 0.195 µM)
C. tropicalis
  MIC C. tropicalis: 0.5 µg/mL (≈ 0.195 µM)
C. dubliniensis
  MIC C. dubliniensis: 0.5 µg/mL (≈ 0.195 µM)
C. neoformans
  MIC C. neoformans: 0.5 µg/mL (≈ 0.195 µM)
C. gattii
  MIC C. gattii: 0.25 µg/mL (≈ 0.0977 µM)
Coccidioides species
  MIC Range Coccidioides species: 0.5 µg/mL (≈ 0.195 µM)
Fusarium spp.; 48 h
  MIC Range Fusarium spp.: 0.25 to 1 µg/mL
Lomentospora prolificans
  MIC Range Lomentospora prolificans: 0.25 µg/mL (≈ 0.0977 µM)
Rhizopus arrhizus; 24 h
  MIC Range Rhizopus arrhizus: 2 to 64 µg/mL
Paecilomyces variotii; 48 h
  MIC Range Paecilomyces variotii: 0.25 µg/mL (≈ 0.0977 µM)
In vitro; [5]
  EC50: > 300 µg/mL

## N=C(N)NCCC[C@@H](N)C(=O)N[C@@H](CCCNC(=N)N)C(=O)N[C@H](CCCNC(=N)N)C(=O)NCCCCCCCCCC(=O)N[C@H](CCCNC(=N)N)C(=O)N[C@@H](CCCNC(=N)N)C(=O)N[C@H](CCCNC(=N)N)C(=O)NCCCCCCCC(=O)N[C@H](CCCNC(=N)N)C(=O)N[C@@H](CCCNC(=N)N)C(=O)N[C@H](CCCNC(=N)N)C(=O)N[C@@H](CCCNC(=N)N)C(=O)NCCCCCCCC(=O)N[C@H](CCCNC(=N)N)C(=O)N[C@@H](CCCNC(=N)N)C(=O)N[C@H](CCCNC(=N)N)C(=O)N[C@@H](CCCNC(=N)N)C(N)=O [SEQ ID NO: 33, rRr-(Ada)-rRr-(Aoa)-rRrR-(Aoa)-rRrR-NH2] (H-[dR]R[dR][NH(CH2)9CO][dR]R[dR][Aoc][dR]R[dR]R[Aoc][dR]R[dR]R-NH2)
[2]
  MIC Staphylococcus aureus: 16 µg/mL (≈ 6.03 µM)
[3]
  MIC Escherichia coli: 16 µg/mL (≈ 6.03 µM)
[4]
  MIC Pseudomonas aeruginosa: 32 µg/mL (≈ 12.1 µM)
[1]; [6]
  MTD: 10 to 15 mg/kg
[1]; [7]
  MTD: 5 to 7.5 mg/kg
C. albicans
  MIC C. albicans: 1 µg/mL (≈ 0.377 µM)
C. glabrata
  MIC C. glabrata: 0.5 µg/mL (≈ 0.188 µM)
C. parapsilosis
  MIC C. parapsilosis: 0.5 µg/mL (≈ 0.188 µM)
C. krusei
  MIC C. krusei: 0.5 µg/mL (≈ 0.188 µM)
C. auris
  MIC C. auris: 0.5 µg/mL (≈ 0.188 µM)
C. tropicalis
  MIC C. tropicalis: 0.5 µg/mL (≈ 0.188 µM)
C. dubliniensis
  MIC C. dubliniensis: 0.25 µg/mL (≈ 0.0941 µM)
C. neoformans
  MIC C. neoformans: 0.25 µg/mL (≈ 0.0941 µM)
C. gattii
  MIC C. gattii: 0.5 µg/mL (≈ 0.188 µM)
Fusarium spp.; 48 h
  MIC Range Fusarium spp.: 0.25 to 0.5 µg/mL
Scedosporium spp.; 72 h
  MIC Range Scedosporium spp.: 0.25 µg/mL (≈ 0.0941 µM)
In vitro; [5]
  EC50: > 300 µg/mL

## C[C@@H](c1ncncc1F)[C@](O)(Cn1cncn1)c1ccc(F)cc1F [VOR, voriconazole, reference compound]
Fusarium spp.; N = 3 strains, 48 hrs
  MIC Range Fusarium spp.: 4 to 16 µg/mL
Scedosporium spp.; N = 2 strains, 72 hrs
  MIC Range Scedosporium spp.: 1 to 2 µg/mL
Lomentospora prolificans; N = 1 strain
  MIC Range Lomentospora prolificans: 16 µg/mL (≈ 45.8 µM)
Paecilomyces variotii; N = 1 strain, 48 hrs
  MIC Range Paecilomyces variotii: 0.12 µg/mL (≈ 0.344 µM)
